Assay results from the supplement of paper PMC10307832.

Columns and labels:
Experiment in all cases: relative viability (nuclei count vs DMSO), 5 days (fraction); higher = more cells survive
Bexarotene + Navitoclax = compound: C=C(c1ccc(C(=O)O)cc1)c1cc2c(cc1C)C(C)(C)CCC2(C)C [Bexarotene] + CC1(C)CCC(c2ccc(Cl)cc2)=C(CN2CCN(c3ccc(C(=O)NS(=O)(=O)c4ccc(N[C@H](CCN5CCOCC5)CSc5ccccc5)c(S(=O)(=O)C(F)(F)F)c4)cc3)CC2)C1 [Navitoclax] (partner 0.5 µM)
Summary of the method: (§1)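 Values are medians from duplicate plates. Each reflects relative viability, defined as the nuclei count of treated wells over that of vehicle wells. Lung cancer cell lines in 1536-well plates were pin-tool dosed one day after seeding with one drug alone or with a fixed anchor-drug dose plus five library-drug doses (not always all listed) in √10 steps, then fixed, stained and imaged at 4× after 5 days.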

Bexarotene + Linsitinib = compound: C=C(c1ccc(C(=O)O)cc1)c1cc2c(cc1C)C(C)(C)CCC2(C)C [Bexarotene] + C[C@]1(O)C[C@@H](c2nc(-c3ccc4ccc(-c5ccccc5)nc4c3)c3c(N)nccn32)C1 [Linsitinib] (partner 1 µM)
Summary of the method: as §1

Bexarotene + Foretinib = compound: C=C(c1ccc(C(=O)O)cc1)c1cc2c(cc1C)C(C)(C)CCC2(C)C [Bexarotene] + COc1cc2c(Oc3ccc(NC(=O)C4(C(=O)Nc5ccc(F)cc5)CC4)cc3F)ccnc2cc1OCCCN1CCOCC1 [Foretinib] (partner 0.25 µM)
Summary of the method: as §1

Bexarotene + Luminespib = compound: C=C(c1ccc(C(=O)O)cc1)c1cc2c(cc1C)C(C)(C)CCC2(C)C [Bexarotene] + CCNC(=O)c1noc(-c2cc(C(C)C)c(O)cc2O)c1-c1ccc(CN2CCOCC2)cc1 [Luminespib] (partner 0.01 µM)
Summary of the method: as §1

| Cell Line | relative viability (Bexarotene + Navitoclax; first compound 0.08 µM) | relative viability (Bexarotene + Navitoclax; first compound 0.253 µM) | relative viability (Bexarotene + Navitoclax; first compound 0.8 µM) | relative viability (Bexarotene + Navitoclax; first compound 2.53 µM) | relative viability (Bexarotene + Navitoclax; first compound 8 µM) | relative viability (Bexarotene + Linsitinib; first compound 0.08 µM) | relative viability (Bexarotene + Linsitinib; first compound 0.253 µM) | relative viability (Bexarotene + Linsitinib; first compound 0.8 µM) | relative viability (Bexarotene + Linsitinib; first compound 2.53 µM) | relative viability (Bexarotene + Linsitinib; first compound 8 µM) | relative viability (Bexarotene + Foretinib; first compound 0.08 µM) | relative viability (Bexarotene + Foretinib; first compound 0.253 µM) | relative viability (Bexarotene + Foretinib; first compound 0.8 µM) | relative viability (Bexarotene + Foretinib; first compound 2.53 µM) | relative viability (Bexarotene + Foretinib; first compound 8 µM) | relative viability (Bexarotene + Luminespib; first compound 0.08 µM) | relative viability (Bexarotene + Luminespib; first compound 0.253 µM) | relative viability (Bexarotene + Luminespib; first compound 0.8 µM) | relative viability (Bexarotene + Luminespib; first compound 2.53 µM) | relative viability (Bexarotene + Luminespib; first compound 8 µM) |
| --- | --- | --- | --- | --- | --- | --- | --- | --- | --- | --- | --- | --- | --- | --- | --- | --- | --- | --- | --- | --- |
| HCC-78 | 0.673 | 0.714 | 0.667 | 0.644 | 0.863 | 0.524 | 0.461 | 0.44 | 0.374 | 0.392 | 0.54 | 0.499 | 0.547 | 0.523 | 0.468 | – | – | – | – | – |
| HCC-366 | 1.04 | 1.15 | 1.14 | 0.975 | 1.03 | 1.1 | 0.781 | 0.774 | 0.715 | 0.635 | 0.94 | 0.989 | 0.962 | 0.969 | 0.834 | – | – | – | – | – |
| HCC-827 | 1.06 | 1.05 | 0.97 | 0.975 | 0.868 | 1.01 | 0.966 | 0.896 | 0.906 | 0.854 | 1.07 | 1.02 | 0.992 | 1.09 | 0.976 | 0.525 | 0.78 | 0.655 | 0.808 | 0.473 |
| HOP-62 | 1.02 | 1.07 | 1.26 | 1.01 | 1.17 | 1.01 | 1.17 | 1.15 | 1.02 | 0.909 | 1.35 | 1.28 | 1.23 | 1.14 | 1.08 | 1.07 | 1.1 | 1.01 | 1.09 | 0.978 |
| IA-LM | 0.6 | 0.785 | 0.724 | 0.603 | 0.664 | 0.682 | 0.581 | 0.523 | 0.603 | 0.51 | 1.03 | 1.14 | 0.98 | 0.935 | 0.93 | – | – | – | – | – |
| LC-2-ad | 0.576 | 0.485 | 0.432 | 0.368 | 0.284 | 0.88 | 0.94 | 0.742 | 0.786 | 0.881 | 0.976 | 1.01 | 0.969 | 0.982 | 0.893 | 1.01 | 0.978 | 1.04 | 1 | 1.1 |
| LCLC-97TM1 | 0.459 | 0.4 | 0.413 | 0.427 | 0.381 | 0.185 | 0.193 | 0.185 | 0.207 | 0.224 | 0.891 | 1 | 0.887 | 0.933 | 0.969 | 0.827 | 0.849 | 0.778 | 0.769 | 0.822 |
| LCLC-103H | – | – | – | – | – | 1.24 | 1.15 | 1 | 1.06 | 1.14 | 0.753 | 0.665 | 0.695 | 0.814 | 0.677 | 1.08 | 0.935 | 0.885 | 1.04 | 0.846 |
| LK-2 | 1.1 | 0.782 | 0.935 | 0.944 | 0.802 | 0.513 | 0.713 | 0.692 | 0.705 | 0.773 | 1.42 | 1.27 | 1.54 | – | 1.68 | 0.206 | 0.222 | 0.281 | – | 0.18 |
